Measured values as given in ChEMBL document CHEMBL5050850, “Compositions and methods of using the same for treatment of neurodegenerative and mitochondrial disease” (2020).

Columns and labels:
[1] = Induction of mitophagy in human HeLa MKYP cells treated with FCCP/oligomycin for 6 hrs and measured by FACS analysis; format: functional, cell-based
HeLa [2] = experiment: Cytotoxicity against human HeLa MKYP cells assessed as percentage of DAPI-positive cells at 50 uM and measured by DAPI staining method; format: toxicity, cell-based
HeLa [3] = experiment: Cytotoxicity against human HeLa MKYP cells assessed as cell death at 25 uM treated with FCCP/oliogmycin and measured DAPI staining method assay relative to control; format: toxicity, cell-based
HeLa [4] = experiment: Cytotoxicity against human HeLa MKYP cells assessed as cell death at 25 uM and measured DAPI staining method assay relative to control; format: toxicity, cell-based
[5] = Induction of mitophagy in human HeLa MKYP cells treated at 6.3 uM with FCCP/oligomycin for 6 hrs and measured by FACS analysis relative to control; format: functional

EC50 [1]	SMILES	Activity (HeLa [2])	Activity (HeLa [3])	Activity (HeLa [4])	Activity [5]	Activity ([5]; 6 h, 6.3 µM)
> 50 µM	FC(F)(F)c1cc2c(NC3CCCc4ncncc43)ncnc2[nH]1 (configuration not stated)	12%	–	–	–	–
13.3 µM	CO[C@H]1COc2ccccc2[C@H]1Nc1ncnc2[nH]c(C(F)(F)F)cc12	3.6%	3.555%	2.49%	–	–
4 µM	CO[C@H]1COc2ccccc2[C@@H]1Nc1ncnc2[nH]c(C(F)(F)F)cc12	15.9%	15.865%	3.66%	–	–
> 50 µM	CCCCNc1ncnc2[nH]c(C(F)(F)F)c(C)c12	11.9%	–	–	–	–
0.81 µM	CN(C)[C@H]1CCc2ccccc2[C@@H]1Nc1ncnc2[nH]c(C(F)(F)F)cc12	79.3%	79.29%	4.33%	–	–
> 50 µM	c1ccc(C2(Nc3ncnc4[nH]cnc34)CC2)cc1	13.4%	–	–	–	–
3.24 µM	FC(F)(F)c1cc2c(NC3CCOc4ccccc43)ncnc2[nH]1 (configuration not stated)	22.3%	–	–	–	–
1.4 µM	FC(F)(F)c1cc2c(N[C@H]3COc4ccccc43)ncnc2[nH]1	22.8%	–	–	–	–
> 50 µM	O[C@H]1Cc2ccccc2[C@H]1Nc1ncnc2[nH]c(C(F)(F)F)cc12	21.2%	21.2%	2.75%	–	–
–	Fc1cc(Cl)cc(CNc2ncnc3[nH]c(C(F)(F)F)cc23)c1	4.8%	–	–	–	–
> 50 µM	c1ccc2c(c1)CC[C@H]2Nc1ncnc2[nH]cnc12	10.3%	–	–	–	–
6.1 µM	c1ccc2c(c1)OCC2Nc1ncnc2[nH]cnc12 (configuration not stated)	21%	–	–	–	–
–	CCCCNc1ncnc2[nH]c(CC)cc12	93.4%	–	–	14%	–
6.3 µM	CO[C@@H]1COc2ccccc2[C@H]1Nc1ncnc2[nH]c(C(F)(F)F)cc12	10.6%	10.645%	2.61%	–	–
1.6 µM	CO[C@@H]1COc2ccccc2[C@@H]1Nc1ncnc2[nH]c(C(F)(F)F)cc12	12.1%	12.11%	3.4%	–	–
2 µM	C[C@H](Nc1ncnc2[nH]cnc12)c1ccccc1	11.7%	–	–	–	–
4.6 µM	Cc1nc2c(N[C@@H](C)c3ccccc3)ncnc2[nH]1	31.9%	–	–	–	–
> 50 µM	c1ccc2c(c1)OCC[C@H]2Nc1ncnc2[nH]cnc12	16%	–	–	–	–
47.4 µM	C[C@@H](Nc1ncnc2[nH]cnc12)c1ccccc1	10.1%	–	–	–	–
3.48 µM	OC[C@H](Nc1ncnc2[nH]cnc12)c1ccccc1	14.5%	–	–	–	–
17.3 µM	CC(=O)N1CCC(Nc2ncnc3[nH]c(C(F)(F)F)cc23)c2ccccc21 (configuration not stated)	6.9%	6.92%	2.69%	–	–
–	FC(F)(F)c1cc2c(NC3CCc4ccccc43)ncnc2[nH]1 (stereo in doubt; 18)	1.7%	–	–	–	14.3%
21.4 µM	FC(F)(F)c1cc2c(NC3CCN(Cc4ccccc4)CC3)ncnc2[nH]1	43.9%	–	–	–	–
–	FC(F)(F)c1cc2c(NCc3ccncn3)ncnc2[nH]1	1.5%	–	–	–	–
> 50 µM	C[C@@H](Nc1ncnc2[nH]c(C3CC3)nc12)c1ccccc1	12.3%	–	–	–	–

EC50 [1]	SMILES	Activity (HeLa [2])	Activity (HeLa [3])	Activity (HeLa [4])	Activity [5]	Activity ([5]; 6 h, 6.3 µM)
–	CCCCNc1ncnc2[nH]c(CC(F)(F)F)cc12	24.8%	–	–	13.9%	–
3.17 µM	C[C@H](Nc1ncnc2[nH]c(C3CC3)nc12)c1ccccc1	27.6%	–	–	–	–
4.38 µM	c1ccc2c(c1)CC[C@@H]2Nc1ncnc2[nH]cnc12	16.2%	–	–	–	–
> 50 µM	CCCCNc1ncnc2c1cc(C(F)(F)F)n2C(C)=O	36.6%	–	–	–	–
–	CCCCNc1ncnc2[nH]c(C(OCC)C(F)(F)F)cc12 (configuration not stated)	15.8%	–	–	17.9%	–
> 50 µM	FC(F)(F)c1cc2c(NC3CCCc4ccccc43)ncnc2[nH]1 (racemic)	27.1%	–	–	–	–
1.69 µM	c1ccc2c(c1)OCC[C@@H]2Nc1ncnc2[nH]cnc12	17%	–	–	–	–
6.3 µM	CC(Nc1ncnc2[nH]c(C3CC3)nc12)c1ccccc1 (configuration not stated)	18.3%	–	–	–	–
10.6 µM	COc1ncc(CNc2ncnc3[nH]c(C(F)(F)F)cc23)cn1	5.8%	–	–	–	–
2.69 µM	CC(Nc1ncnc2[nH]cnc12)c1ccccc1 (configuration not stated)	18.2%	–	–	–	–
–	c1coc(CNc2ncnc3[nH]cnc23)c1 [KINETIN]	4.9%	–	–	–	–
16 µM	Clc1cccc(CNc2ncnc3nc[nH]c23)c1	12.5%	–	–	–	–
> 50 µM	CN(C)C1CCC(CNc2ncnc3[nH]c(C(F)(F)F)cc23)CC1 (configuration not stated)	5.2%	–	–	–	–
4 µM	COc1ccc2c(c1)[C@@H](Nc1ncnc3[nH]c(C(F)(F)F)cc13)CCC2	3.2%	3.18%	1.18%	–	–
–	CCCCNc1ncnc2[nH]c(-c3ccnn3C)cc12	94.6%	–	–	15%	–
14.7 µM	OC[C@H](Nc1ncnc2[nH]c(C(F)(F)F)cc12)c1ccccc1	30.4%	–	–	–	–
9 µM	O[C@@H]1Cc2ccccc2[C@@H]1Nc1ncnc2[nH]c(C(F)(F)F)cc12	35.6%	35.6%	5.5%	–	–
–	CCCCNc1ncnc2[nH]c(-c3ccccc3)cc12	90%	–	–	52%	–
5.6 µM	FC(F)(F)c1cc2c(N[C@H]3CCOc4ccccc43)ncnc2[nH]1	37.7%	–	–	–	–
> 50 µM	O=S1(=O)Cc2ccccc2C(Nc2ncnc3[nH]c(C(F)(F)F)cc23)C1 (configuration not stated)	13.2%	–	–	–	–
> 50 µM	c1coc(CNc2ncnc3[nH]c(C4CCC4)nc23)c1	3%	–	–	–	–
–	COc1ccc2c(c1)CCCC2Nc1ncnc2[nH]c(C(F)(F)F)cc12 (configuration not stated)	95.5%	–	–	29.8%	–
2.26 µM	c1ccc(CCNc2ncnc3[nH]cnc23)cc1	19.7%	–	–	–	–
1.98 µM	c1ccc2c(c1)OCC[C@H]2Nc1ncnc2[nH]c(C3CC3)cc12	17.3%	17.3%	7.26%	–	–
4.4 µM	OC[C@@H](Nc1ncnc2[nH]c(C(F)(F)F)cc12)c1ccccc1	30.3%	–	–	–	–

EC50 [1]	SMILES	Activity (HeLa [2])	Activity (HeLa [3])	Activity (HeLa [4])	Activity [5]	Activity ([5]; 6 h, 6.3 µM)
> 50 µM	COc1cc(CNc2ncnc3[nH]c(C4CC4)nc23)ccn1	7.1%	–	–	–	–
–	FC(F)(F)c1cc2c(NCc3cccc(Cl)c3)ncnc2[nH]1	20.3%	–	–	–	–
4.38 µM	Oc1ccc2c(c1)CCC[C@H]2Nc1ncnc2[nH]c(C(F)(F)F)cc12	11%	11%	3.32%	–	–
18.8 µM	CCC(Nc1ncnc2[nH]c(C(F)(F)F)cc12)c1cncnc1 (configuration not stated)	15.9%	–	–	–	–
18.8 µM	CCCCNc1ncnc2[nH]c(C3CC3)nc12	16.2%	–	–	–	–
–	Fc1cccc(CNc2ncnc3[nH]c(C(F)(F)F)cc23)c1Cl	4.5%	–	–	–	–
2 µM	COc1ccccc1CNc1ncnc2[nH]c(C(F)(F)F)cc12	24.7%	–	–	–	–
> 50 µM	C[C@@H](Nc1nccc2[nH]cnc12)c1ccccc1	7.6%	–	–	–	–
–	FC(F)(F)c1cc2c(NC3CCCc4ccccc43)ncnc2[nH]1 (stereo in doubt; 16)	4.5%	–	–	–	10.1%
6.9 µM	CC(C)[C@@H](Nc1ncnc2[nH]c(C(F)(F)F)cc12)c1cncnc1	6.8%	–	–	–	–
–	FC(F)(F)c1cc2c(NC3CCc4ccccc43)ncnc2[nH]1 (stereo in doubt; 17)	2.3%	–	–	–	14.8%
> 50 µM	OC[C@@H](Nc1ncnc2[nH]cnc12)c1ccccc1	8.9%	–	–	–	–
0.02 µM	C[C@H](Nc1ncnc2[nH]c(C(F)(F)F)cc12)c1ccccc1	90.8%	–	–	–	–
3.1 µM	C[C@@H](Nc1ncnc2[nH]c(C(F)(F)F)cc12)c1ccccc1	63.7%	–	–	–	–
10.8 µM	COc1ccccc1CNc1ncnc2nc[nH]c12	12.4%	–	–	–	–
–	FC(F)(F)c1cc2c(NCc3cnccn3)ncnc2[nH]1	0.9%	–	–	–	–
5.5 µM	OC[C@H]1CCc2ccccc2[C@@H]1Nc1ncnc2[nH]c(C(F)(F)F)cc12	30.9%	30.87%	9.83%	–	–
> 50 µM	FC(F)(F)c1cc2c(NC3COCc4ccccc43)ncnc2[nH]1 (configuration not stated)	42.9%	–	–	–	–
14.9 µM	FC(F)(F)c1cc2c(N[C@@H]3COc4ccccc43)ncnc2[nH]1	29.2%	–	–	–	–
3.6 µM	CC(CNc1ncnc2[nH]cnc12)c1ccccc1 (configuration not stated)	28.9%	–	–	–	–
1.81 µM	CN1CCC(Nc2ncnc3[nH]c(C(F)(F)F)cc23)c2ccccc21 (configuration not stated)	28.1%	–	–	–	–
–	COc1ncccc1CNc1ncnc2[nH]c(C(F)(F)F)cc12	7.6%	–	–	–	–
> 50 µM	Cc1nc2c(N[C@H](C)c3ccccc3)ncnc2[nH]1	9.7%	–	–	–	–
2.08 µM	COc1ccc(CNc2ncnc3[nH]c(C(F)(F)F)cc23)c(OC)c1	42.6%	–	–	–	–
> 50 µM	CCCCNc1ncnc2[nH]c(C3CCC3)nc12	6.1%	–	–	–	–

SMILES	EC50 [1]	Activity (HeLa [2])	Activity (HeLa [3])	Activity (HeLa [4])	Activity [5]	Activity ([5]; 6 h, 6.3 µM)
c1ncc(CNc2ncnc3[nH]c(C4CC4)nc23)cn1	> 50 µM	7.1%	–	–	–	–
C[C@H](Nc1ncnc2[nH]c(C(F)(F)F)cc12)c1cncnc1	3.1 µM	23.7%	–	–	–	–
C[C@@H](Nc1ncnc2[nH]c(C(F)(F)F)cc12)c1cncnc1	21.6 µM	22.9%	–	–	–	–
FC(F)(F)c1cc2c(NCc3cncnc3)ncnc2[nH]1	11.7 µM	1.7%	–	–	–	–
c1ncc(CNc2ncnc3[nH]cnc23)cn1	4.4 µM	5.3%	–	–	–	–
